From EP1976513B1 (priority 2006, dated 2007)
“And” between values parts separate entries of the source, which are not always exact repeats. Identical values can stand only once. Counter-ions that a name gives are not always drawn. Like-named read-outs stand apart in the source and are kept apart here.

Key:
[1] = target: human serotonin reuptake transporter (Homo sapiens, UniProt P31645); experiment: cell-based
[2] = target: T1, human dopamine reuptake transporter (Homo sapiens, UniProt Q01959); experiment: cell-based
T1 construct: expressed in transfected cells; host or cells: CHO-K1 or HEK293
T1 sequence (Q01959 whole entry): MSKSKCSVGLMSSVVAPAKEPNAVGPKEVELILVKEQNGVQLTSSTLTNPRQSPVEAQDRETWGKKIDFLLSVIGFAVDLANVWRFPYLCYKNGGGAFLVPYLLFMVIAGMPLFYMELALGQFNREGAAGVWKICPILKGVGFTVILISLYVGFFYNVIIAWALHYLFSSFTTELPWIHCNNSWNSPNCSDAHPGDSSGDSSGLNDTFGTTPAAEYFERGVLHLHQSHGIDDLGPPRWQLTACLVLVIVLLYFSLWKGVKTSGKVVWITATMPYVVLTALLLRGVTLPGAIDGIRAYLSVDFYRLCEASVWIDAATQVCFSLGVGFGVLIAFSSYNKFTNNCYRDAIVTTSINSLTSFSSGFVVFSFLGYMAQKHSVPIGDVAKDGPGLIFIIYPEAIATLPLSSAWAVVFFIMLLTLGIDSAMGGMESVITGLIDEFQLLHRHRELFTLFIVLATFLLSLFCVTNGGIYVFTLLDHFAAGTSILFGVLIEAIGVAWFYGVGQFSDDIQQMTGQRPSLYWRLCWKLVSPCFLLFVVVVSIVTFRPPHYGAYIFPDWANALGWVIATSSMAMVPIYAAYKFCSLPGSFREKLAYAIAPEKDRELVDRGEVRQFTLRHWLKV

[3] = recombinant human serotonin transporter (SERT), read-out: Human IC50 (nM) hSERT
[4] = recombinant human dopamine transporter (DAT), read-out: Human IC50 (nM) hDAT
[5] = Human IC50 (nM) hSERT, recombinant human serotonin transporter (SERT)
[6] = read-out: Human IC50 (nM) hSERT

Sequence of human serotonin reuptake transporter (P31645 whole entry): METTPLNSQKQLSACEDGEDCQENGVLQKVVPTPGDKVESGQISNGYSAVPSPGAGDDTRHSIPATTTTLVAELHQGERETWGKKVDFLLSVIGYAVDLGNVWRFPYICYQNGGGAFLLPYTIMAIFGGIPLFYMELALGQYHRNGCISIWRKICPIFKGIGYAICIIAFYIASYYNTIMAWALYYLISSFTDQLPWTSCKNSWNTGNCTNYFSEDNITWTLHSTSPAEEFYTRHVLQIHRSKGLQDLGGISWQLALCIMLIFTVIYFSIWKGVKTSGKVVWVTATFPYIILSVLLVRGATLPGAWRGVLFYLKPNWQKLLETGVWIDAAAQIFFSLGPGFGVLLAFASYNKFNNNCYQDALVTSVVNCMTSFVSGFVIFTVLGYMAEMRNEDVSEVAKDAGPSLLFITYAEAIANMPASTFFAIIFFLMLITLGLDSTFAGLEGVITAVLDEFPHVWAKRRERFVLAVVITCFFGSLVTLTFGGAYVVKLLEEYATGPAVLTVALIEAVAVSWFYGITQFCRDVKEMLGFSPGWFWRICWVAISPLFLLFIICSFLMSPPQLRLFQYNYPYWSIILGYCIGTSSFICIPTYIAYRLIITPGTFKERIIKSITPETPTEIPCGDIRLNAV

Row | Structure (SMILES) | IC50 [1, 3] | IC50 [2, 4] | further results
1 | NCC1(c2ccc(Cl)c(Cl)c2)CCC(F)(F)CC1 [Compound 267, (1-(3,4-dichlorophenyl)-4,4-difluorocyclohexyl)methanamine] | 1290 nM | 147 nM | 
2 | CNCC1(c2ccc(Cl)c(Cl)c2)CCCC1 [Compound 88, (1-(3,4-dichlorophenyl)cyclopentyl)-N-methylmethanamine] |  | 93 nM | IC50 ([1]; Human IC50 (nM) hSERT): 829 nM
3 | CNCC1(c2ccc3cc(F)ccc3c2)CCCCC1 [Compound 67, 1-(1-(6-fluoronaphthalen-2-yl)cyclohexyl)-N-methylmethanamine] |  | 1760 nM | IC50 [1, 5]: 230 nM
4 | CC1(O)CCC(CN)(c2ccc3c(c2)OCO3)CC1 (stereo not shown) [Compound 216, 4-(aminomethyl)-4-(benzo[d][1,3]dioxol-5-yl)-1-methylcyclohexanol] | > 10000 nM | > 10000 nM | 
5 | CC(N(C)C)C1(c2ccc(OC(F)(F)F)cc2)CCCCC1 (single isomer, unassigned) [63 E1, N,N-dimethyl-1-(1-(4-(trifluoromethoxy)phenyl)cyclohexyl)ethanamine] | 194 nM | 6540 nM | 
6 | CN1Cc2c(ccc3c2OCO3)C2(CCC(C)(O)CC2)C1 (single isomer, unassigned) [Compound 294, 4',8-dimethyl-8,9-dihydro-7H-spiro([1,3]dioxolo[4,5-h]isoquinoline-6,1'-cyclohexan]-4'-ol] | > 10000 nM | > 10000 nM | 
7 | CCC1(O)CCC(CN)(c2ccc(Cl)c(Cl)c2)CC1 (stereo not shown) [Compound 281, 4-(aminomethyl)-4-(3,4-dichlorophenyl)-1-ethylcyclohexanol] | 256 nM | 384 nM | 
8 | NCC1(c2ccc(Cl)cc2)CCCCC1 [Compound 29, (1-(4-chlorophenyl)cyclohexyl)methanamine hydrochloride] | 5240 nM | 195 nM | 
9 | CNCC1(c2ccc(Cl)c(Cl)c2)CCC1 [Compound 42, 1-(1-(3,4-dichlorophenyl)cyclobutyl)-N-methylmethanamine] | 935 nM | 761 nM | 
10 | CNC(C)C1(c2ccc3ccccc3c2)CCC(C)(O)CC1 (single isomer, unassigned) [231 E2, 1-methyl-4-(1-(methylamino)ethyl)-4-(naphthalen-2-yl)cyclohexanol] | 63 nM | 83 nM | 
11 | CNCC1(c2ccc(C(F)(F)F)cc2)CCCCC1 [Compound 100, N-methyl-1-(1-(4-(trifluoromethyl)phenyl)-cyclohexyl)methanamine] |  | 3410 nM | IC50 [1, 5]: 1500 nM
12 | CN(C)CC1(c2ccc3ccccc3c2)CCC(F)CC1 (stereo not shown) [Compound 235, 1-(4-fluoro-1-(naphthalen-2-yl)cyclohexyl)-N,N-dimethylmethanamine] | 9 nM | 92 nM | 
13 | CCCC1(O)CCC(CN)(c2ccc(Cl)c(Cl)c2)CC1 (stereo not shown) [Compound 284, 4-(aminomethyl)-4-(3,4-dichlorophenyl)-1-propylcyclohexanol] | 7900 nM | 2460 nM | 
14 | CNCC1(c2ccc3c(c2)OCO3)CCC(C)(O)CC1 (stereo not shown) [Compound 241, 4-(benzo[d][1,3]dioxol-5-yl)-1-methyl-4-((methylamino)methyl)cyclohexanol] | > 10000 nM | > 10000 nM | 
15 | NCC1(c2ccc(F)c3ccccc23)CCCCC1 [Compound 40, (1-(4-fluoronaphthalen-1-yl)cyclohexyl)methanamine] | 753 nM | 2320 nM | 
16 | NCC1(c2cccc(F)c2)CCCCC1 [Compound 37, (1-(3-fluorophenyl)cyclohexyl)methanamine] |  | > 10000 nM | IC50 [1, 5]: > 10000 nM
17 | NCC1(c2ccc(-c3cc(F)cc(F)c3)cc2)CCCCC1 [Compound 23, (1-(3',5'-difluorobiphenyl-4-yl)cyclohexyl)methanamine] | 62 nM | 682 nM | 
18 | CSc1ccc(C2(CN(C)C)CCCCC2)cc1 [Compound 52, N,N-dimethyl-1-(1-(4-(methylthio)phenyl)cyclohexyl)methanamine] | 44 nM |  | IC50 ([2]; Human IC50 (nM) hDAT): 176 nM
19 | NCC1(c2cccc(Cl)c2)CCCCC1 [Compound 28, (1-(3-chlorophenyl)cyclohexyl)methanamine hydrochloride] | 4560 nM | 707 nM | 
20 | CN(C)CC1(c2ccc3ccccc3c2)CCC(F)(F)CC1 [Compound 252, 1-(4,4-difluoro-1-(naphthalen-2-yl)cyclohexyl)-N,N-dimethylmethanamine] | 11 nM and 12 nM | 6 nM and 5 nM | 
21 | CCCC1(O)CCC(CNC)(c2ccc(Cl)c(Cl)c2)CC1 (stereo not shown) [Compound 285, 4-(3,4-dichlorophenyl)-4-((methylamino)methyl)-1-propylcyclohexanol] | 1140 nM | 1900 nM | 
22 | CNCC1(c2ccc(OC)cc2)CCCCC1O (single isomer, unassigned) [139 E1, cis-2-((methylamino)methyl)-2-(4-methoxyphenyl)cyclohexanol] | > 10000 nM | > 10000 nM | 

Row | Structure (SMILES) | IC50 [1, 3] | IC50 [2, 4] | further results
23 | CNCC1(c2ccc3ccccc3c2)CCC(C)(O)CC1 (stereo not shown) [Compound 223, 1-methyl-4-((methylamino)methyl)-4-(naphthalen-2-yl)cyclohexanol] | 73 nM |  | IC50 ([2]; read-out: Human IC50 (nM) hDAT): 874 nM
24 | CN(C)CC1(c2ccc3c(c2)OCO3)CCCCC1 [Compound 102, 1-(1-(benzo[d][1,3]dioxol-5-yl)cyclohexyl)-N,N-dimethylmethanamine] |  | 420 nM | IC50 [1, 5]: 195 nM
25 | CCC(N(C)C)C1(c2ccc(Cl)c(Cl)c2)CCCCC1 (single isomer, unassigned) [61 E1, 1-(1-(3,4-dichlorophenyl)cyclohexyl)-N,N-dimethylpropan-1-amine] |  | 959 nM | IC50 [1, 5]: 5950 nM
26 | CN(C)CC1(c2ccc3ccccc3c2)CCC(Cl)CC1 (stereo not shown) [Compound 230, 1-(4-chloro-1-(naphthalen-2-yl)cyclohexyl)-N,N-dimethylmethanamine] | 30 nM | 11 nM | 
27 | CN(C)CC1(c2ccc3c(c2)OCO3)CCC(O)CC1 (stereo not shown) [Compound 238, 4-(benzo[d][1,3]dioxol-5-yl)-4-((dimethylamino)methyl)cyclohexanol] | 1180 nM | 5720 nM | 
28 | CC(N)C1(c2ccc(-c3ccoc3)cc2)CCCCC1 (single isomer, unassigned) [20 E1, 1-(1-(4-(furan-3-yl)phenyl)cyclohexyl)ethanamine] | 40 nM | 369 nM | 
29 | NCC1(c2ccc3ccccc3c2)CCC(F)(F)CC1 [Compound 221, (4,4-difluoro-1-(naphthalen-2-yl)cyclohexyl)methanamine] | 61 nM | 182 nM | 
30 | CN(C)CC1(c2ccc(Cl)c(Cl)c2)CCC(F)CC1 (stereo not shown) [Compound 261, 1-(1-(3,4-dichlorophenyl)-4-fluorocyclohexyl)-N,N-dimethylmethanamine] |  |  | IC50 [1, 6]: 30 nM; IC50 ([2]; Human IC50 (nM) hDAT): 7 nM
31 | CNCC1(c2ccc3ccccc3c2)CCC(O)(CF)CC1 (stereo not shown) [Compound 243, 1-(fluoromethyl)-4-((methylamino)methyl)-4-(naphthalen-2-yl)cyclohexanol] | 26 nM | 851 nM | 
32 | CN(C)CC1(c2ccc3ccccc3c2)CCC(O)CC1 (stereo not shown) [Compound 228, 4-((dimethylamino)methyl)-4-(naphthalen-2-yl)cyclohexanol] | 96 nM |  | IC50 ([2]; read-out: Human IC50 (nM) hDAT): 1560 nM
33 | CN(C)CC1(c2ccc(Cl)c(Cl)c2)CCC2(CC1)OCCO2 [Compound 271, 1-(8-(3,4-dichlorophenyl)-1,4-dioxaspiro[4.5]decan-8-yl)-N,N-dimethylmethanamine] |  | 197 nM | IC50 [1, 6]: 79 nM
34 | CCC1(O)CCC(CN)(c2ccc(Cl)c(Cl)c2)CC1 (stereo not shown) [Compound 278, 4-(aminomethyl)-4-(3,4-dichlorophenyl)-1-ethylcyclohexanol] | 5140 nM | 3190 nM | 
35 | COC1CCC(CN)(c2ccc(Cl)c(Cl)c2)CC1 (stereo not shown) [Compound 255, (1-(3,4-dichlorophenyl)-4-methoxycyclohexyl)methanamine] | 1420 nM | 170 nM | 
36 | CN(C)CC1(c2ccc3cc(F)ccc3c2)CCCCC1 [Compound 68, 1-(1-(6-fluoronaphthalen-2-yl)cyclohexyl)-N,N-dimethylmethanamine] | 19 nM | 343 nM | 
37 | CNCC1(c2ccc(Cl)c(F)c2)CCCCC1 [Compound 95, (1-(4-chloro-3-fluorophenyl)cyclohexyl)-N-methylmethanamine] |  | 324 nM | IC50 [1, 5]: 480 nM
38 | CC1(O)CCCC(CN)(c2ccc(Cl)c(Cl)c2)C1 (single isomer, unassigned) [193 E2, 3-Aminomethyl-3-(3,4-dichloro-phenyl)-1-methyl-cyclohexanol] | 957 nM | 3160 nM | 
39 | CN(C)CC1(c2ccc(Cl)c(Cl)c2)CCC(O)CC1 (stereo not shown) [Compound 263, 4-(3,4-dichlorophenyl)-4-((dimethylamino)methyl)cyclohexanol] | 674 nM | 498 nM | 
40 | NCC1(c2ccc(Cl)c(Cl)c2)CCC1 [Compound 1, (1-(3,4-dichlorophenyl)cyclobutyl)methanamine] | 1290 nM | 103 nM | 
41 | CNCC1(c2ccc3ccccc3c2)CCC(C)(O)CC1 (stereo not shown) [Compound 222, 1-methyl-4-((methylamino)methyl)-4-(naphthalen-2-yl)-cyclohexanol] | 609 nM |  | IC50 ([2]; read-out: Human IC50 (nM) hDAT): 2090 nM
42 | CNCC1(c2ccc(Cl)c(Cl)c2)CCC(F)CC1 (stereo not shown) [Compound 264, 1-(1-(3,4-dichlorophenyl)-4-fluorocyclohexyl)-N-methylmethanamine] | 1050 nM | 17 nM | 
43 | CN(C)CC1(c2ccc(Cl)c(Cl)c2)CCC(C)(O)CC1 (stereo not shown) [Compound 274, 4-(3,4-dichlorophenyl)-4-((dimethylamino)methyl)-1-methylcyclohexanol] | 809 nM | 251 nM | 
44 | NCC1(c2ccc3c(c2)OCO3)CCCCC1 [Compound 35, (1-(benzo[d][1,3]dioxol-5-yl)cyclohexyl)methanamine] |  | 4710 nM | IC50 [1, 5]: > 10000 nM
